Toxic doses and inconclusive results are not listed.
Test system: BDF1 mice, P388 leukemia ip, median survival T/C
Assay: NCI In Vivo Anticancer Drug Screen. Data for tumor model P388 Leukemia (intraperitoneal) in B6D2F1 (BDF1) mice
Conditions: endpoint: median survival time, higher = longer survival
Procedure, shortened: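 Compound-treated tumour-bearing mice were compared with vehicle-treated controls. Survival was recorded, and the value is the treated-group measurement divided by the control-group measurement (T/C).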

[1] = dose: 80.0 mg/kg/injection, schedule: Q04DX003 (ip), vehicle: Klucel (hydroxypropylcellulose) (HPC)
[2] = dose: 200.0 mg/kg/injection, schedule: Q04DX003 (ip), vehicle: Klucel (hydroxypropylcellulose) (HPC)
[3] = dose: 12.5 mg/kg/injection, schedule: Q01DX009 (ip), vehicle: saline with Tween-80
[4] = dose: 25.0 mg/kg/injection, schedule: Q01DX009 (ip), vehicle: saline with Tween-80

Cc1cc(N2CCCCC2)nc(N2CCCCC2)c1C#N
T/C (dose: 50.0 mg/kg/injection, schedule: Q01DX005 (ip), vehicle: saline with Tween-80): 86 % of control
T/C (dose: 100.0 mg/kg/injection, schedule: Q01DX005 (ip), vehicle: saline with Tween-80): 86 % of control
T/C (dose: 200.0 mg/kg/injection, schedule: Q01DX005 (ip), vehicle: saline with Tween-80): 96 % of control

OCCN1CCOCC1
T/C (dose: 100.0 mg/kg/injection, schedule: Q01DX009 (ip), vehicle: saline): 109 % of control
T/C (dose: 200.0 mg/kg/injection, schedule: Q01DX009 (ip), vehicle: saline): 109 % of control
T/C (dose: 400.0 mg/kg/injection, schedule: Q01DX009 (ip), vehicle: saline): 109 % of control

Cc1ccc(NC(=O)c2ccccc2Cl)cc1C
T/C (dose: 100.0 mg/kg/injection, schedule: Q04DX003 (ip), vehicle: saline with Tween-80): 104 % of control
T/C (dose: 200.0 mg/kg/injection, schedule: Q04DX003 (ip), vehicle: saline with Tween-80): 113 % of control
T/C (dose: 400.0 mg/kg/injection, schedule: Q04DX003 (ip), vehicle: saline with Tween-80): 109 % of control

Cc1c[n+]2c3ccccc3c3ccccc3c2s1
T/C (dose: 1.5 mg/kg/injection, schedule: Q01DX009 (ip), vehicle: Klucel (hydroxypropylcellulose) (HPC)): 95 % of control
T/C (dose: 2.5 mg/kg/injection, schedule: Q01DX009 (ip), vehicle: Klucel (hydroxypropylcellulose) (HPC)): 100 % of control
T/C (dose: 3.0 mg/kg/injection, schedule: Q01DX009 (ip), vehicle: Klucel (hydroxypropylcellulose) (HPC)): 90 % of control
T/C (dose: 5.0 mg/kg/injection, schedule: Q01DX009 (ip), vehicle: Klucel (hydroxypropylcellulose) (HPC)): 122 % of control
T/C (dose: 6.0 mg/kg/injection, schedule: Q01DX009 (ip), vehicle: Klucel (hydroxypropylcellulose) (HPC)): 86 % of control
T/C (dose: 10.0 mg/kg/injection, schedule: Q01DX009 (ip), vehicle: Klucel (hydroxypropylcellulose) (HPC)): 118 % of control
T/C (dose: 10.0 mg/kg/injection, schedule: Q04DX003 (ip), vehicle: Klucel (hydroxypropylcellulose) (HPC)): 118 % of control
T/C (dose: 20.0 mg/kg/injection, schedule: Q04DX003 (ip), vehicle: Klucel (hydroxypropylcellulose) (HPC)): 95 % of control
T/C [1]: 90 % of control
T/C [2]: 90 % of control

Cc1nnc2c(Cl)nccn12
T/C (dose: 100.0 mg/kg/injection, schedule: Q01DX001 (ip), vehicle: saline with Tween-80): 106 % of control
T/C (dose: 200.0 mg/kg/injection, schedule: Q01DX001 (ip), vehicle: saline with Tween-80): 106 % of control

O=C1c2ccccc2C(=O)N1Cc1ccc([N+](=O)[O-])cc1
T/C [3]: 97 % of control
T/C [4]: 96 % of control
T/C (dose: 50.0 mg/kg/injection, schedule: Q01DX009 (ip), vehicle: saline with Tween-80): 97 % of control
T/C (dose: 100.0 mg/kg/injection, schedule: Q01DX009 (ip), vehicle: saline with Tween-80): 92 % of control

C=C(C)[C@@]12O[C@@]3(CCCCCCCCC)O[C@@H]1[C@@H]1[C@@H]4O[C@]4(CO)[C@@H](O)[C@]4(O)C(=O)C(C)=CC4[C@@]1(O3)[C@H](C)[C@H]2OC(=O)c1ccccc1 (stereo partly specified)
T/C (dose: 400.0 micrograms/kg/injection, schedule: Q01DX009 (ip), vehicle: saline + alcohol): 174 % of control

CC(C)(C)OC(=O)N/N=C1\CC2CCC1C2 (stereo unspecified)
T/C (dose: 6.25 mg/kg/injection, schedule: Q01DX009 (ip), vehicle: saline with Tween-80): 96 % of control
T/C [3]: 96 % of control
T/C (dose: 13.75 mg/kg/injection, schedule: Q04DX003 (ip), vehicle: Klucel (hydroxypropylcellulose) (HPC)): 95 % of control
T/C [4]: 100 % of control
T/C (dose: 27.5 mg/kg/injection, schedule: Q04DX003 (ip), vehicle: Klucel (hydroxypropylcellulose) (HPC)): 100 % of control
T/C (dose: 35.0 mg/kg/injection, schedule: Q01DX009 (ip), vehicle: Klucel (hydroxypropylcellulose) (HPC)): 105 % of control
T/C (dose: 55.0 mg/kg/injection, schedule: Q01DX009 (ip), vehicle: Klucel (hydroxypropylcellulose) (HPC)): 100 % of control
T/C (dose: 55.0 mg/kg/injection, schedule: Q04DX003 (ip), vehicle: Klucel (hydroxypropylcellulose) (HPC)): 100 % of control
T/C [1]: 105 % of control
T/C (dose: 125.0 mg/kg/injection, schedule: Q04DX003 (ip), vehicle: Klucel (hydroxypropylcellulose) (HPC)): 110 % of control

[O-]/C(CCl)=N\[n+]1c2c(nc3ccccc31)-c1cccc3cccc-2c13
T/C (dose: 12.5 mg/kg/injection, schedule: Q01DX001 (ip), vehicle: Klucel (hydroxypropylcellulose) (HPC)): 105 % of control
T/C (dose: 25.0 mg/kg/injection, schedule: Q01DX001 (ip), vehicle: Klucel (hydroxypropylcellulose) (HPC)): 102 % of control

C=CCNC(=S)Nc1ccc(C)cc1
T/C (dose: 50.0 mg/kg/injection, schedule: Q04DX003 (ip), vehicle: Klucel (hydroxypropylcellulose) (HPC)): 112 % of control
T/C (dose: 100.0 mg/kg/injection, schedule: Q04DX003 (ip), vehicle: Klucel (hydroxypropylcellulose) (HPC)): 104 % of control
T/C [2]: 91 % of control

From PubChem BioAssay AID328 (DTP/NCI, 2004)
